What was measured:
Plasmopara Viticola = assay: whole plant or invertebrate; assay type: in vivo; conditions: foliar, read-out: disease control
Pythium Ultimum = assay: Pythium ultimum / liquid culture (seedling damping off); assay type: cell-based; conditions: Globisporangium ultimum, potato dextrose broth, 24° C., 2-3 days after application, read-out: disease control (inhibition of growth, photometrically)
[1] = system: Puccinia Recondita f. sp. Tritici; assay: Puccinia recondita f. sp. tritici / wheat / leaf disc preventative (brown rust); assay type: in vivo; conditions: foliar, wheat leaf segments cv Kanzler, inoculated 1 day after application, assessed 7-9 days after application, read-out: disease control
Description: 3 Puccinia Recondita f. sp. Tritici/Wheat/Leaf Disc Preventative (Brown Rust) Wheat leaf segments cultivated variety (cv) Kanzler were placed on agar in 24-well plates and sprayed with formulated test compound diluted in water. The leaf disks were inoculated with a spore suspension of the fungus 1 day after application. The inoculated leaf segments were incubated at 19° C. and 75% relative humidity under a light regime of 12/12 h (light/dark) in a climate cabinet and the activity of a compound was assessed as percent disease control compared to untreated when an appropriate level of disease damage appears in untreated check leaf segments (7-9 days after application).

[2] = system: Monographella Nivalis(Microdochium Nivale); assay: Monographella nivalis (Microdochium nivale) / liquid culture (foot rot cereals); assay type: cell-based; conditions: PDB potato dextrose broth, 24° C., 4-5 days after application, read-out: disease control (inhibition of growth, photometrically)
Procedure, shortened: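 Conidia from cryogenic storage mixed into potato dextrose broth, added to compound pre-dispensed from DMSO solution. Incubated at 24° C.; growth inhibition read photometrically 4-5 days after application.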

[3] = system: Mycosphaerella Graminicola(Septoria Tritici); assay: Mycosphaerella graminicola (Septoria tritici) / liquid culture (Septoria blotch); assay type: cell-based; conditions: Zymoseptoria tritici, PDB potato dextrose broth, 24° C., 4-5 days after application, read-out: disease control (inhibition of growth, photometrically)
Procedure, shortened: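 Cryostored conidia mixed into potato dextrose broth and added to compound dispensed from DMSO solution. Incubation at 24 °C; growth inhibition read photometrically 4-5 days after application.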

Gaeumannomyces Graminis = assay: Gaeumannomyces graminis / liquid culture (take-all of cereals); assay type: cell-based; conditions: PDB potato dextrose broth, 24° C., 4-5 days after application, read-out: disease control (inhibition of growth, photometrically)
Procedure, shortened: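 Mycelial fragments from cryogenic storage mixed into potato dextrose broth and added to test compound in DMSO. Incubated at 24° C; growth inhibition read photometrically 4-5 days after application.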

Fusarium Culmorum = assay: microbe, parasite or virus in culture; assay type: cell-based; conditions: read-out: disease control (inhibition of growth, photometrically)
[4] = system: Glomerella Lagenarium(Colletotrichum Ladenarium); assay: Glomerella lagenarium (Colletotrichum lagenarium) / liquid culture (anthracnose); assay type: cell-based; conditions: PDB potato dextrose broth, 24° C., 3-4 days after application, read-out: disease control (inhibition of growth, photometrically)
Procedure, shortened: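 Cryostored conidia were suspended in potato dextrose broth and added to compound in DMSO. Cultures were incubated at 24 °C. Growth inhibition was measured photometrically 3–4 days after application.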

[5] = system: Mycosphaerella Arachidis(Cercospora Arachidicola); assay: Mycosphaerella arachidis (Cercospora arachidicola) / liquid culture (early leaf spot); assay type: cell-based; conditions: PDB potato dextrose broth, 24° C., 4-5 days after application, read-out: disease control (inhibition of growth, photometrically)
Procedure, shortened: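 Cryo-stored conidia in potato dextrose broth were added to compound in DMSO in microtiter plates. After incubation at 24 °C, growth inhibition was measured photometrically 4-5 days after application.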

[6] = system: Phaeosphaeria Nodorum (Septoria Nodorum); assay: Phaeosphaeria nodorum (Septoria nodorum) / wheat / leaf disc preventative (glume blotch); assay type: in vivo; conditions: Parastagonospora nodorum, foliar, wheat leaf segments cv Kanzler, inoculated 2 days after application, assessed 5-7 days after application, read-out: disease control
Description: 5 Phaeosphaeria Nodorum (Septoria Nodorum)/Wheat/Leaf Disc Preventative (Glume Blotch) Wheat leaf segments cv Kanzler were placed on agar in a 24-well plate and sprayed with formulated test compound diluted in water. The leaf disks were inoculated with a spore suspension of the fungus 2 days after application. The inoculated test leaf disks were incubated at 20° C. and 75% relative humidity under a light regime of 12/12 h (light/dark) in a climate cabinet and the activity of a compound was assessed as percent disease control compared to untreated when an appropriate level of disease damage appears in untreated check leaf disks (5-7 days after application).

[7] = system: Botryotinia Fuckeliana(Botrytis Cinerea); assay: Botryotinia fuckeliana (Botrytis cinerea) / liquid culture (gray mould); assay type: cell-based; conditions: Vogels broth, 24° C., 3-4 days after application, read-out: disease control (inhibition of growth, photometrically)
Description: 9 Botryotinia Fuckeliana(Botrytis Cinerea)/Liquid Culture (Gray Mould) Conidia of the fungus from cryogenic storage were directly mixed into nutrient broth (Vogels broth). After placing a DMSO solution of test compound into a 96-well microtiter plate, the nutrient broth containing the fungal spores was added. The test plates were incubated at 24° C. and the inhibition of growth was determined photometrically 3-4 days after application.

[8] = system: Thanatephorus Cucumeris(Rhizoctonia Solani); assay: Thanatephorus cucumeris (Rhizoctonia solani) / liquid culture (foot rot, damping-off); assay type: cell-based; conditions: PDB potato dextrose broth, 24° C., 3-4 days after application, read-out: disease control (inhibition of growth, photometrically)
Description: 16 Thanatephorus Cucumeris(Rhizoctonia Solani)/Liquid Culture (Foot Rot, Damping-Off) Mycelia fragments of a newly grown liquid culture of the fungus were directly mixed into nutrient broth (PDB potato dextrose broth). After placing a DMSO solution of the test compounds into a 96-well microtiter plate at an application rate of 200 ppm, the nutrient broth containing the fungal material was added. The test plates were incubated at 24° C. and the inhibition of growth was determined photometrically 3-4 days after application.

Sclerotinia Sclerotiorum = assay: Sclerotinia sclerotiorum / liquid culture (cottony rot); assay type: cell-based; conditions: PDB potato dextrose broth, 24° C., 3-4 days after application, read-out: disease control (inhibition of growth, visually)
Procedure, shortened: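 Mycelial fragments from fresh liquid culture in potato dextrose broth added to test compounds in DMSO. Incubated at 24° C; growth inhibition scored visually 3-4 days after application.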

SMILES | melting point | pest or weed control at 200 ppm (Plasmopara Viticola) | inhibition at 20 ppm (Pythium Ultimum) | pest or weed control at 200 ppm [1] | inhibition at 20 ppm [2] | inhibition at 20 ppm [3] | inhibition at 20 ppm (Gaeumannomyces Graminis) | inhibition at 20 ppm (Fusarium Culmorum) | inhibition at 20 ppm [4] | inhibition at 20 ppm [5] | pest or weed control at 200 ppm [6] | inhibition at 20 ppm [7] | inhibition at 20 ppm [8] | inhibition at 20 ppm (Sclerotinia Sclerotiorum)
Cc1nc(C)c(-c2cc3c(cc2Cl)COB3O)s1 [Compound 1] | 155 to 160 °C | ≥ 80% | ≥ 80% | ≥ 80% | ≥ 80% | ≥ 80% | ≥ 80% | ≥ 80% | – | – | – | – | – | –
Cn1cccc1-c1cc2c(cc1Cl)COB2O [Compound 4] | 195 to 202 °C | ≥ 80% | ≥ 80% | ≥ 80% | ≥ 80% | ≥ 80% | ≥ 80% | ≥ 80% | ≥ 80% | ≥ 80% | ≥ 80% | – | – | –
OB1OCc2cc(F)c(-c3cccs3)cc21 [Compound 6] | 134 to 140 °C | ≥ 80% | ≥ 80% | ≥ 80% | ≥ 80% | ≥ 80% | ≥ 80% | ≥ 80% | ≥ 80% | ≥ 80% | – | ≥ 80% | ≥ 80% | ≥ 80%
OB1OCc2cc(Cl)c(-c3ncno3)cc21 [Compound 14, 5-(5-chloro-1-hydroxy-3H-2,1-benzoxaborol-6-yl)-1,2,4-oxadiazole] | 175 to 177 °C | ≥ 80% | ≥ 80% | ≥ 80% | ≥ 80% | ≥ 80% | ≥ 80% | ≥ 80% | ≥ 80% | ≥ 80% | – | ≥ 80% | ≥ 80% | ≥ 80%
OB1OCc2cc(F)c(-c3ccsc3Cl)cc21 [Compound 79] | – | ≥ 80% | ≥ 80% | ≥ 80% | ≥ 80% | ≥ 80% | ≥ 80% | – | ≥ 80% | ≥ 80% | ≥ 80% | – | ≥ 80% | ≥ 80%
OB1OCc2cc(Cl)c(-c3ccsc3Cl)cc21 [Compound 88] | – | ≥ 80% | ≥ 80% | ≥ 80% | ≥ 80% | ≥ 80% | ≥ 80% | ≥ 80% | ≥ 80% | ≥ 80% | ≥ 80% | – | ≥ 80% | ≥ 80%
OB1OCc2cc(Cl)c(-c3cncc(C(F)(F)F)c3)cc21 [Compound 91] | – | ≥ 80% | ≥ 80% | ≥ 80% | ≥ 80% | ≥ 80% | ≥ 80% | ≥ 80% | ≥ 80% | ≥ 80% | ≥ 80% | ≥ 80% | ≥ 80% | ≥ 80%
OB1OCc2ccc(-c3ncon3)cc21 [Compound 92] | 209 to 211 °C | – | ≥ 80% | ≥ 80% | ≥ 80% | ≥ 80% | ≥ 80% | ≥ 80% | ≥ 80% | ≥ 80% | – | ≥ 80% | ≥ 80% | ≥ 80%
OB1OCc2cc(Cl)c(-c3ncon3)cc21 [Compound 96] | 180 to 203 °C | – | ≥ 80% | ≥ 80% | ≥ 80% | ≥ 80% | ≥ 80% | ≥ 80% | ≥ 80% | ≥ 80% | – | ≥ 80% | ≥ 80% | ≥ 80%

— patent US10314308B2, “Microbiocidal benzoxaboroles” (SYNGENTA PARTICIPATIONS AG, priority 2015, dated 2019)
